One test deals with human FLAP (Homo sapiens (Human), UniProt P20292). The experiment in a line: FLAP binding assay (HTRF format). Summed up:
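Read-out is the HTRF ratio. Each reported figure averages two assay plates on which samples were tested in duplicate.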
On the technique in general: In TR-FRET formats the signal depends on donor and acceptor labels being close together.

Test [1] has as its system leukotriene pathway in human whole blood (LTB4 levels). The experiment in a line: Human whole blood assay (A23187-stimulated LTB4). Conditions: Homo sapiens, read-out: LTB4 IC50 1:1. Format: cell-based. Summed up:
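Heparinised human whole blood, diluted 1:1 in RPMI, was pre-incubated with test compounds for 15 min at 37° Celsius, then stimulated with A23187 (7 μg/mL) for 30 min at 37° Celsius. Plasma LTB4 was measured by immunoassay kit; IC50 from 4-parameter fit; single replicate, at least one healthy donor.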

The mark [2] stands for this setting: human whole blood diluted 1:1, A23187-stimulated.
The mark [3] stands for this setting: human FLAP wild type, HTRF format, average of two plates, duplicates.
Setting [4] is: human whole blood diluted 1:1 in RPMI, A23187-stimulated LTB4.
Where [5] appears, read: read-out: FLAP Binding wild type HTRF Ki.

SMILES strings stand for the structures. Where a name gives a salt, the structure may show the parent alone. Read-outs that look alike come from different tables or passages of the source.

One may read the Ki as a measure of affinity in units of concentration, obtained from inhibition or displacement. The term IC50 denotes the point on the concentration scale where inhibition reaches its midpoint.

human FLAP, sequence (P20292 whole entry): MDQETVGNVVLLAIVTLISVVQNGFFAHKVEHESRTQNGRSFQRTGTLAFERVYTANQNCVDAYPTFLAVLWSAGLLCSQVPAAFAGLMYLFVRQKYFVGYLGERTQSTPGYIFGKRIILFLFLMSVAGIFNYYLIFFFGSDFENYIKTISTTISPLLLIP

In turn, `Nc1cnc(-c2ccc(-c3ccccc3C(=O)N3CCOC(C(F)(F)F)C3)cc2F)cn1` (racemic) [Example 754, racemic 5-(3-Fluoro-2′-{[2-(trifluoromethyl)morpholin-4-yl]carbonyl}biphenyl-4-yl)pyrazin-2-amine] came in with a Ki at human FLAP (wild type FLAP, HTRF format) of 69.9 nM. In addition, the IC50 in test [1] (setting [2]) turned out to be 377 nM.

For `Nc1cnc(-c2ccc(-c3ccc(C(F)(F)F)cc3C(F)(F)F)cc2F)cn1` [Example 562, 5-[3-Fluoro-2′,4′-bis(trifluoromethyl)biphenyl-4-yl]pyrazin-2-amine], the Ki at human FLAP (wild type FLAP, HTRF format) turned out to be 55 nM. Also, the IC50 in test [1] (setting [2]) stood at 226 nM.

`Nc1cnc(Sc2ccccc2-c2ccc(-c3cnc(N)cn3)c(F)c2)nc1` [Example 219, 2-{[4′-(5-Aminopyrazin-2-yl)-3′-fluorobiphenyl-2-yl]sulfanyl}pyrimidin-5-amine hydrochloride]: the inhibitory constant (Ki) on human FLAP (setting [3]) came out at 5 nM. In addition, the 50% inhibitory concentration (IC50) in test [1] (setting [4]) was determined as 31 nM.

On to `Nc1cnc(-c2ccc(-c3ccccc3S(=O)(=O)N[C@H]3CC[C@H](O)CC3)cc2F)cn1` [Example 110, 4′-(5-Aminopyrazin-2-yl)-3′-fluoro-N-(4-hydroxycyclohexyl)biphenyl-2-sulfonamide], for which the affinity at human FLAP (setting [3]), expressed as Ki, was 3 nM. For the same compound, the IC50 in test [1] (setting [4]) stood at 29 nM.

For `CCS(=O)(=O)N(C)c1ccccc1-c1ccc(-c2cnc(N)cn2)c(F)c1` [Example 494, N-[4′-(5-Aminopyrazin-2-yl)-3′-fluorobiphenyl-2-yl]-N-methylethanesulfonamide], the inhibition constant (Ki) at human FLAP (wild type FLAP, HTRF format) amounted to 32 nM. Further, in test [1] (setting [2]), the half-inhibitory concentration (IC50) worked out at 99 nM.

At human FLAP (wild type FLAP, HTRF format), `N#Cc1cccc(Oc2ccccc2-c2ccc(-c3cnc(N)nc3)c(F)c2)n1` [Example 618, 6-{[4′-(2-Aminopyrimidin-5-yl)-3′-fluorobiphenyl-2-yl]oxy}pyridine-2-carbonitrile] showed an inhibition constant (Ki) of 14.6 nM. The IC50 in test [1] (setting [2]) was found to be 211 nM.

Regarding `CNS(=O)(=O)c1ccccc1-c1ccc(-c2cnc3[nH]cc(CO)c3c2)c(F)c1` [Example 457, 3′-Fluoro-4′-[3-(hydroxymethyl)-1H-pyrrolo[2,3-b]pyridin-5-yl]-N-methylbiphenyl-2-sulfonamide], on human FLAP (wild type FLAP, HTRF format), the Ki was 3 nM. Besides, the IC50 in test [1] (setting [2]) stood at 140 nM.

Take `C[C@H](NS(=O)(=O)c1ccccc1-c1ccc(-c2cnc(N)nc2)c(F)c1)C(F)(F)F` [Example 297, 4′-(2-Aminopyrimidin-5-yl)-3′-fluoro-N-[(1S)-2,2,2-trifluoro-1-methylethyl]biphenyl-2-sulfonamide trifluoroacetic acid salt]: the Ki on human FLAP (setting [5]) worked out at 5 nM. In addition, in test [1] (setting [4]), the IC50 was found to be 45 nM.

For `Nc1cnc(-c2ccc(-c3ccccc3S(=O)(=O)N3CCC(N)CC3)cc2F)cn1` [Example 65, 5-{2′-[(4-Aminopiperidin-1-yl)sulfonyl]-3-fluorobiphenyl-4-yl}pyrazin-2-amine], the inhibition constant Ki at human FLAP (setting [3]) was found to be 49 nM. Besides, the IC50 in test [1] (setting [4]) came to 322 nM.

Take `Nc1ncc(-c2ccc(-c3ccc(C(F)(F)F)cc3C(=O)N3CCOCC3)cc2F)cn1` [Example 522, 5-[3-Fluoro-2′-(morpholin-4-ylcarbonyl)-4′-(trifluoromethyl)biphenyl-4-yl]pyrimidin-2-amine]: the Ki at human FLAP (wild type FLAP, HTRF format) was 348 nM. The IC50 in test [1] (setting [2]) turned out to be 393 nM.

As for `Nc1cnc(-c2ccc(-c3ccccc3S(=O)(=O)N[C@@H]3CCCNC3=O)cc2F)cn1` [Example 113, (R)-4′-(5-Aminopyrazin-2-yl)-3′-fluoro-N-(2-oxopiperidin-3-yl)biphenyl-2-sulfonamide], the affinity on human FLAP (setting [3]) corresponds to a Ki of 10 nM. The IC50 in test [1] (setting [4]) turned out to be 145 nM.

For `Nc1cnc(-c2ccc(-c3ccccc3S(=O)(=O)Nc3cccnc3)cc2F)cn1` [Example 31, 4′-(5-Aminopyrazin-2-yl)-3′-fluoro-N-pyridin-3-ylbiphenyl-2-sulfonamide], on human FLAP (setting [3]), affinity was put at a Ki of 4 nM. Moreover, the IC50 in test [1] (setting [4]) amounted to 36 nM.

For `C[C@@H](CO)NS(=O)(=O)c1ccccc1-c1ccc(-c2cnc3[nH]ccc3c2)c(F)c1` [Example 362, 3′-Fluoro-N-[(1S)-2-hydroxy-1-methylethyl]-4′-(1H-pyrrolo[2,3-b]pyridin-5-yl)biphenyl-2-sulfonamide], the Ki at human FLAP (setting [3]) was 1 nM. Also, the IC50 in test [1] (setting [4]) was 47 nM.

In the case of `Nc1cnc(-c2ccc(-c3ccccc3SC(F)(F)F)cc2F)cn1` [Example 189, 5-{3-Fluoro-2′-[(trifluoromethyl)sulfanyl]biphenyl-4-yl}pyrazin-2-amine], the inhibition constant Ki at human FLAP (setting [3]) was found to be 173 nM. Besides, the IC50 in test [1] (setting [4]) stood at 1650 nM.

Consider `Nc1ncc(-c2ccc(-c3ccc(C(F)(F)F)cc3S(=O)(=O)NCCO)cc2F)cn1` [Example 326, 4′-(2-Aminopyrimidin-5-yl)-3′-fluoro-N-(2-hydroxyethyl)-4-(trifluoromethyl)biphenyl-2-sulfonamide], for which the affinity on human FLAP (setting [3]), expressed as Ki, was 3 nM. Besides, in test [1] (setting [4]), the 50% inhibitory concentration (IC50) was 29 nM.

At human FLAP (wild type FLAP, HTRF format), `CC(C)(C)NS(=O)(=O)c1ccccc1-c1ccc(-c2cnc3[nH]c(=O)[nH]c3n2)c(F)c1` [Example 429, N-tert-Butyl-3′-fluoro-4′-(2-oxo-2,3-dihydro-1H-imidazo[4,5-b]pyrazin-5-yl)biphenyl-2-sulfonamide] came in with a Ki of 13 nM. Moreover, the IC50 in test [1] (setting [2]) is 209 nM.

Consider `CC(C)(C)OC(=O)NCCNS(=O)(=O)c1ccccc1-c1ccc(-c2cnc(N)cn2)c(F)c1` [Example 151, tert-Butyl [2-({[4′-(5-aminopyrazin-2-yl)-3′-fluorobiphenyl-2-yl]sulfonyl}amino)ethyl]carbamate], for which the Ki on human FLAP (setting [3]) worked out at 1 nM. The 50% inhibitory concentration (IC50) in test [1] (setting [4]) came to 114 nM.

With `NC(=O)CSc1ccccc1-c1ccc(-c2cnc(N)cn2)c(F)c1` [Example 200, 2-{[4′-(5-Aminopyrazin-2-yl)-3′-fluorobiphenyl-2-yl]sulfanyl}acetamide], affinity at human FLAP (setting [3]) was put at a Ki of 35 nM. For the same compound, the IC50 in test [1] (setting [4]) came out at 176 nM.

On to `Nc1ncc(-c2ccc(-c3ccccc3S(=O)(=O)N3CC(O)(C(F)(F)F)C3)cc2F)cn1` [Example 315, 1-((4′-(2-Aminopyrimidin-5-yl)-3′-fluoro-[1,1′-biphenyl]-2-yl)sulfonyl)-3-(trifluoromethyl)azetidin-3-ol], for which the inhibitory constant (Ki) on human FLAP (setting [5]) turned out to be 1 nM. Further, the concentration for half-maximal inhibition (IC50) in test [1] (setting [4]) is 27 nM.

With `CCNS(=O)(=O)c1cc(C(F)(F)F)ccc1-c1ccc(-c2cnc(N)nc2)nc1` [Example 692, 2-[6-(2-Aminopyrimidin-5-yl)pyridin-3-yl]-N-ethyl-5-(trifluoromethyl)benzenesulfonamide trifluoroacetic acid salt], affinity at human FLAP (wild type FLAP, HTRF format) was put at a Ki of 53.3 nM. For the same compound, the IC50 in test [1] (setting [2]) was found to be 110 nM.

Compound `Nc1cnc(-c2ccc(-c3ccccc3CSc3nccc(N)n3)cc2F)cn1` [Example 237, 2-(((4′-(5-Aminopyrazin-2-yl)-3′-fluoro-[1,1′-biphenyl]-2-yl)methyl)thio)pyrimidin-4-amine hydrochloride] registered an inhibitory constant (Ki) on human FLAP (setting [3]) of 8 nM. The half-inhibitory concentration (IC50) in test [1] (setting [4]) is 134 nM.

Regarding `Nc1ncc(-c2ccc(-c3ccccc3Oc3nccc(C(F)(F)F)n3)cc2F)cn1` [Example 613, 5-(3-Fluoro-2′-{[4-(trifluoromethyl)pyrimidin-2-yl]oxy}biphenyl-4-yl)pyrimidin-2-amine], the inhibition constant (Ki) on human FLAP (wild type FLAP, HTRF format) amounted to 215 nM. The half-inhibitory concentration (IC50) in test [1] (setting [2]) turned out to be 556 nM.

For the compound `COc1c(-c2ccc(C(F)(F)F)cc2)ccc(-c2cnc(N)cn2)c1F` [Example 698, 5-(3-fluoro-2-methoxy-4′-(trifluoromethyl)-[1,1′-biphenyl]-4-yl)pyrazin-2-amine], the Ki at human FLAP (wild type FLAP, HTRF format) worked out at 8.7 nM. Further, the IC50 in test [1] (setting [2]) is 112 nM.

On to `Nc1ccc(-c2ccc(-c3ccccc3S(=O)(=O)N3C[C@@H]4C[C@H]3CO4)cc2F)cn1` [Example 663, 5-(2′-((1S,4S)-2-Oxa-5-azabicyclo[2.2.1]heptan-5-ylsulfonyl)-3-fluoro-[1,1′-biphenyl]-4-yl)pyridin-2-amine], for which the Ki on human FLAP (wild type FLAP, HTRF format) was determined as 5.8 nM. For the same compound, the IC50 in test [1] (setting [2]) was 34.7 nM.

Compound `N#Cc1cc(Oc2ccccc2-c2ccc(-c3cnc(N)cn3)c(F)c2)ccn1` [Example 537, 4-{[4′-(5-Aminopyrazin-2-yl)-3′-fluorobiphenyl-2-yl]oxy}pyridine-2-carbonitrile] gave a Ki on human FLAP (wild type FLAP, HTRF format) of 3 nM. In addition, in test [1] (setting [2]), the IC50 came out at 42 nM.

On human FLAP (setting [3]), `CC(C)[C@H](CO)NS(=O)(=O)c1ccccc1-c1ccc(-c2cnc(N)nc2)c(F)c1` [Example 273, 4′-(2-Aminopyrimidin-5-yl)-3′-fluoro-N-[(1R)-1-(hydroxymethyl)-2-methylpropyl]biphenyl-2-sulfonamide trifluoroacetic acid salt] showed a Ki of 9 nM. Further, the IC50 in test [1] (setting [4]) was found to be 105 nM.

In the case of `NS(=O)(=O)c1ccccc1-c1ccc(-c2cnc3c(c2)OCCN3)c(F)c1` [Example 387, 4′-(3,4-Dihydro-2H-pyrido[3,2-b][1,4]oxazin-7-yl)-3′-fluorobiphenyl-2-sulfonamide], affinity on human FLAP (setting [3]) was put at a Ki of 8 nM. Also, the half-maximal inhibitory concentration (IC50) in test [1] (setting [4]) was 253 nM.

`CC(C)(O)CNS(=O)(=O)c1ccccc1-c1ccc(-c2cnc(N)cn2)c(F)c1` [Example 101, 4′-(5-Aminopyrazin-2-yl)-3′-fluoro-N-(2-hydroxy-2-methylpropyl)biphenyl-2-sulfonamide] came in with a Ki on human FLAP (setting [3]) of 2 nM. Also, the half-maximal inhibitory concentration (IC50) in test [1] (setting [4]) came out at 14 nM.

Turning to `Cc1ncc(CNS(=O)(=O)c2ccccc2-c2ccc(-c3cnc(N)cn3)c(F)c2)c(N)n1` [Example 165, N-[(4-Amino-2-methylpyrimidin-5-yl)methyl]-4′-(5-aminopyrazin-2-yl)-3′-fluorobiphenyl-2-sulfonamide], the affinity at human FLAP (setting [3]), expressed as Ki, was 18 nM. Besides, in test [1] (setting [4]), the concentration for half-maximal inhibition (IC50) worked out at 879 nM.

`CNS(=O)(=O)c1ccccc1-c1ccc(-c2cnc3[nH]ccc3n2)c(F)c1` [Example 379, 3′-Fluoro-N-methyl-4′-(5H-pyrrolo[2,3-b]pyrazin-2-yl)biphenyl-2-sulfonamide]: the Ki on human FLAP (setting [3]) was determined as 1 nM. Also, the IC50 in test [1] (setting [4]) is 33 nM.

Values taken from patent US9079866B2, “Flap modulators” (JANSSEN PHARMACEUTICA NV, priority 2013, dated 2015).
